Data: ChEMBL document CHEMBL1157539, “Thousands of chemical starting points for antimalarial lead identification” (Nature, 2010)

tested on: Plasmodium falciparum; assay: GSK_TCMDC: Inhibition of Plasmodium falciparum 3D7 in whole erythrocytes, using parasite LDH activity as an index of growth.; format: functional, organism-based; details: Plasmodium falciparum, 3D7

Which XC50 does the source give for CN(CC(=O)N1CCN(S(=O)(=O)c2cccc(Cl)c2)CC1CN1CCCC1)c1ccc(Cl)c(Cl)c1 (stereo not drawn) here?
The XC50 was 1240 nM.

COc1cc(C)c(C(O)CNC(C)CCc2ccccc2)cc1C (stereo not drawn) was tested. Which XC50 did it give?
Its XC50 is 730 nM.

For O=C(Nc1cccc(Cl)c1Cl)NC1CCN(Cc2cccc(O)c2)CC1, which XC50 is on record?
The XC50 was 799 nM.

With CS(=O)(=O)N1CC2(CCN(CCC(NC(=S)Nc3ccccc3)c3ccc(Cl)c(Cl)c3)CC2)c2ccccc21 (stereo not drawn) as the compound, how does the XC50 read?
Its XC50 is 826 nM.

For O=C(NCC1CC1)C1CCN(C(c2ccccc2)c2nc3ccccc3s2)CC1 (stereo not drawn), which XC50 is on record?
Its XC50 is 1020 nM.

For COc1cccc(-c2[nH]c3ccccc3c2CN2CCC(c3c(C)cccc3C)CC2)c1, which XC50 is on record?
Its XC50 is 1020 nM.

For O=C(NCc1ccccc1F)c1ccc(N2CCC(NCc3cccc(-n4cccn4)c3)CC2)cc1, which XC50 is on record?
Its XC50 is 1730 nM.

For Cc1cc(NCC2CCN(CC3CCCCC3)C2)nc(Nc2ccc(Cl)cc2)n1 (stereo not drawn), which XC50 is on record?
The XC50 was 739 nM.

With O=C(Nc1ccc(F)cc1)NC1CCN(c2ccnc3cc(Cl)ccc23)CC1 as the compound, how does the XC50 read?
Its XC50 is 408 nM.

For Cc1ccccc1C1CCN(C2CCC(NC(=O)c3ccc(-c4cccc(C(F)(F)F)c4)o3)CC2)CC1 (stereo not drawn), which XC50 is on record?
Its XC50 is 346 nM.

For O=C(c1cc(C(=O)NC2CCCCC2)c(=O)n(C2CCCCC2)c1)c1cc(F)ccc1O, which XC50 is on record?
Its XC50 is 627 nM.

Which XC50 does the source give for O=C(/C=C/c1ccc2ccccc2c1)NCC1(c2ccc(-c3ccccc3)cc2)CCOCC1 here?
The XC50 was 1520 nM.

With CC(=O)Nc1ccc(CN2CCC(NC(=O)c3ccc(-c4cccc(F)c4)s3)CC2)cc1 as the compound, how does the XC50 read?
Its XC50 is 1430 nM.

With c1csc(-c2nc(N3CCCCC3)ncc2-c2ccsc2)n1 as the compound, how does the XC50 read?
The XC50 was 136 nM.

With CCOc1cc(Cc2cnc(N)nc2N)cc(Br)c1OC as the compound, how does the XC50 read?
The XC50 was 1440 nM.

With CN1CCN(CC(=O)Nc2cccc(-c3cccc(-c4nc5cc(C(F)(F)F)ccc5[nH]4)c3)c2)CC1 as the compound, how does the XC50 read?
Its XC50 is 372 nM.

With OCCOCn1cnc2cnc(N[C@H]3OC[C@H](O)[C@@H](O)[C@@H]3O)nc21 as the compound, how does the XC50 read?
The XC50 was 1640 nM.

COc1ccc2nccc([C@@H](O)CN3CCC(NCc4ccc5c(c4)nnn5C(C)C)CC3)c2c1 was tested. Which XC50 did it give?
Its XC50 is 642 nM.

How did the XC50 turn out when O=C(N[C@H]1CCN(Cc2ccc(OCCN3CCNCC3)c(Br)c2)C1)c1ccc(Cl)c(Cl)c1 was run?
Its XC50 is 484 nM.

How did the XC50 turn out when O=C(Nc1ccc(-c2cccc(-c3nc4ccccc4[nH]3)c2)cc1)Nc1ccc(Cl)c(Cl)c1 was run?
The XC50 was 459 nM.

For CC(C)(C)c1cc(C(=O)N2CCN(c3ccc(C(F)(F)F)cn3)CC2)n(Cc2ccc(F)cc2)n1, which XC50 is on record?
Its XC50 is 978 nM.

Which XC50 does the source give for N#Cc1ccc2[nH]cc(CN3CCC4(CC3)CN(CCNCc3ccccc3)C(=O)O4)c2c1 here?
The XC50 was 1160 nM.

With CC(C)NCc1ccc(-c2ccc(CN3CCCC(c4ccccc4)C3)cc2)c(C(=O)NC2Cc3ccccc3C2)c1 (stereo not drawn) as the compound, how does the XC50 read?
The XC50 was 991 nM.

COc1cccc2cc(C(=O)N[C@@H](CC(C)C)C(=O)N[C@H](/C=N/N(C)C(=O)OC(C)(C)C)CC(=O)OC(C)(C)C)oc12 was tested. Which XC50 did it give?
The XC50 was 654 nM.

COc1cc2nc(NCCN3CCOCC3)n3nc(-c4ccccc4)nc3c2cc1OC was tested. Which XC50 did it give?
Its XC50 is 215 nM.

For COc1cc(Nc2ncnc3cc(OC)c(OC)cc23)cc([N+](=O)[O-])c1, which XC50 is on record?
The XC50 was 810 nM.

How did the XC50 turn out when Cn1cccc1C(=O)C(=O)Nc1cccc(-c2ccc(-c3nc4cc(C(F)(F)F)ccc4[nH]3)cc2)c1 was run?
The XC50 was 785 nM.

For COc1ccc(-c2cccc(NC(=O)c3cccs3)c2)cc1CN1CCCN(C)CC1, which XC50 is on record?
The XC50 was 698 nM.

Which XC50 does the source give for C=CCc1c(C(=O)NCC23CC4CC(CC(C4)C2)C3)nc2ccccc2c1O here?
The XC50 was 1030 nM.

Which XC50 does the source give for N=c1c2c(n(Cc3cccc(Cl)c3)c3c1CCC3)CCCC2 here?
Its XC50 is 194 nM.

Which XC50 does the source give for O=C(Nc1cccc(-c2nn3ncccc3c2-c2ccnc(Nc3cccc(-c4cnco4)c3)n2)c1)c1c(F)cccc1F here?
The XC50 was 166 nM.

With Cc1cccc2nc(-c3ccc(-c4ccc(NC(=O)CN5CCN(C)CC5)cc4)cc3)[nH]c12 as the compound, how does the XC50 read?
Its XC50 is 785 nM.

Which XC50 does the source give for Cc1cnc(NC(=O)c2cn(-c3ccccc3)nc2-c2cccs2)s1 here?
Its XC50 is 945 nM.

With Cc1c(S(=O)(=O)Nc2ccc3ccn(CCN(C)C)c3c2)sc2ccc(Cl)cc12 as the compound, how does the XC50 read?
The XC50 was 921 nM.

Which XC50 does the source give for CCCNCc1ccc(-c2ccc(CN(CCOC)C(=O)CCC(=O)c3ccc(OC)c(F)c3)cc2)nc1 here?
The XC50 was 683 nM.

How did the XC50 turn out when CCNc1cc(C)nc(Nc2ccc(NC(=O)Cc3ccc(OC)cc3)cc2)n1 was run?
The XC50 was 1380 nM.

O=C(Cc1c[nH]cn1)Nc1ccc(-c2ccc(-c3nc4cc(C(F)(F)F)ccc4[nH]3)s2)cc1 was tested. Which XC50 did it give?
The XC50 was 657 nM.

COc1ccc(CNC2CCN(C)CC2)cc1-c1ccc(S(=O)(=O)NCC2CCCO2)s1 (stereo not drawn) was tested. Which XC50 did it give?
The XC50 was 800 nM.
